This is an account of results in patent US20160279297A1, “METHODS FOR INHIBITING STENOSIS, OBSTRUCTION, OR CALCIFICATION OF A STENTED HEART VALVE OR BIOPROSTHESIS” (CONCIEVALVE LLC, priority 2013, published 2016).

Test [1] in a line: rabbit model of experimental hypercholesterolemia, serum levels. The class given is in vivo. The note with it: cholesterol-fed rabbits, atorvastatin 3.0 mg/kg daily orally. An excerpt:
An experimental animal was developed to test for the dosing of the atorvastatin to reduce the inflammation and also the pannus formation on the valve leaflet. The experimental procedure is as follows, Male New Zealand white rabbits weighing 2.5-3.0 kg were assigned to a control (N=10) or 0.5% cholesterol-fed group (N=10) or to a cholesterol-fed and atorvastatin group (N=10). All animals were fed ad libitum for 12 weeks. Control rabbits were fed a standard diet. Cholesterol-fed animals received a diet supplemented with 0.5% (w/w) cholesterol (Purina Mills, Woodmont, Ind.), and the cholesterol-fed and atorvastatin group were given atorvastatin 3.0 mg/kg daily orally for the statin treatment arm^1. Prior to the initiation of the diet the rabbits underwent surgical implantation of bovine pericardial bioprosthetic valve tissue (Perimount, Edwards, Irvine Calif.) using intramuscular ketamine/xylazine (40/5 mg/kg). Following this 12-week period, the rabbits were anesthetized using intramuscular ketamine/xylazine (40/5 mg/kg) and then underwent euthanasia with intracardiac administration of 1 ml of Beuthanasia. Immediately after removal from the subcutaneous implantation site the bioprosthetic valves were fixed in 4% buffered formalin for 24 hours and then embedded in paraffin. Paraffin embedded sections (6 μm) were cut and stained with Masson Trichrome stain for histopathologic exam. […]

For test [2], the system named is bovine pericardial bioprosthetic valve tissue. Description: rabbit model with subcutaneously implanted bioprosthetic valve tissue: RNA expression and pannus formation. The class given is in vivo.
The test system of another test is Mesenchymal valve cells. Briefly: tritiated thymidine incorporation, PDGF-stimulated cell proliferation. The class given is cell-based. On the procedure:
Mesenchymal valve cells were isolated from the cardiac aortic valves by collagenase digestion. Cells were cultured in medium 199 with 10% (v/v) heat-inactivated fetal bovine serum at 37 C in a humidified atmosphere of 5% CO2 in air. Cells were utilized between the 3rd and 7th passage. Mesenchymal cells were grown to confluence in 24-well plates and then growth-arrested by incubation in serum-free medium for 24 hours. The test materials were added to the wells and incubated for 18 hours. Test materials include PDGF at concentrations (10-40 ug/ml) PDGF Sigma in combination with a MEK inhibitor (PD0325901 Mek Inhibitor) (2.5-10 ug/ml). The wells were pulsed for 4 hours with 1 μCi/well of tritiated thymidine. Newly synthesized DNA will be then identified by incorporation of radioactivity into acid-precipitated cellular material. All samples were assayed in quadruplicate wells. The positive control wells were given PDGF (10 ug/ml) Sigma (St. Louis, Mo.), the negative control wells received serum-free medium.
In general terms: Incorporation of labelled thymidine or its analogues reports DNA synthesis.

The test system of the next test is p42/44. Description: p42/44 protein expression by western blot. The format is cell-based. The settings on record: FIG. 16 Panel C. Background: Immunoblotting shows a protein as a band on a membrane.
The next test concerns neointima hyperplasia. The note with it: stent coating, at four weeks; cited from earlier work.
For test [3] the following is noted: from biodegradable polylactic acid, follow-up of four years; cited from earlier work.
The mark [4] stands for this setting: atorvastatin at 80 mg per day equivalent to human dosing, FIG. 15.

The molecule `CC(C)c1c(C(=O)Nc2ccccc2)c(-c2ccccc2)c(-c2ccc(F)cc2)n1CC[C@@H](O)C[C@@H](O)CC(=O)O` [Atorvastatin] yielded a hsCRP serum levels in test [1] (12 weeks) of 7.8±8.7. Moreover, in test [1] (12 weeks (equivalent to 80 mg a day for humans)), the serum cholesterol levels came out at 824.0 ± 152.1 mg/dL. In test [2] (setting [4]), the “stem cell RNA expression on the valves” value is given as “reduction” and the “stem cell mediated pannus formation” value is listed as “reduction”. In test [2] (previous experiments, 20 mg a day and 40 mg a day), the “therapeutic benefit at the lower dosing ranges” value is reported as “zero therapeutic benefit”. The “ckit stem cell adhering to the valve” value in test [2] (rabbit, in vivo) is listed as “reduces”.
PDGF: the mesenchymal cell proliferation result in the test on Mesenchymal valve cells (PDGF dose response 10-40 ug/ml, FIG. 16 Panel A) is on record as “proliferating”. For the same molecule, the p42/44 protein expression entry in the test with p42/44 was “increase”.
Consider `CC(=O)O[C@H]1C(=O)[C@@]2(C)[C@H]([C@H](OC(=O)c3ccccc3)[C@]3(O)C[C@H](OC(=O)[C@H](O)[C@@H](NC(=O)c4ccccc4)c4ccccc4)C(C)=C1C3(C)C)[C@]1(OC(C)=O)CO[C@@H]1C[C@@H]2O` [Paclitaxel], for which, in the test with neointima hyperplasia, the neointima hyperplasia result was “inhibits”.
In the case of `O=C(NOC[C@H](O)CO)c1ccc(F)c(F)c1Nc1ccc(I)cc1F` [PD0325901], the “dosing range with inhibition effect on cell proliferation” value in the test on Mesenchymal valve cells (PDGF 10 ug/ml induced proliferation, tested range 2.5-10 ug/ml, 18 hours, FIG. 16 Panel B) lay within 5 to 10 µg/mL. The p42/44 protein expression result in the test on p42/44 is “inhibition”.
On to `CCOCCO[C@@H]1CC[C@@H](C[C@@H](C)[C@@H]2CC(=O)[C@H](C)/C=C(\C)[C@@H](O)[C@@H](OC)C(=O)[C@H](C)C[C@H](C)/C=C/C=C/C=C(\C)[C@@H](OC)C[C@@H]3CC[C@@H](C)[C@@](O)(O3)C(=O)C(=O)N3CCCC[C@H]3C(=O)O2)C[C@H]1OC` [biolimus], for which, in test [3], the “major adverse clinical events versus sirolimus eluting stents” value is “not inferior and potentially better”.
